Source: article PMC10294832, “Investigation of Naphthyl–Polyamine Conjugates as Antimicrobials and Antibiotic Enhancers” (Antibiotics, 2023)
Like-named read-outs stand apart in the source and are kept apart here.

Key:
E. coli (ATCC 25922) [1] = test: Enhancement of erythromycin activity; assay type: cell-based, Escherichia coli; conditions: for Eryth/E.c: concentration required to restore erythromycin activity (combination MIC): erythromycin fixed at 10.9 µM (8 µg/mL), E. coli (ATCC 25922); for Eryth/E.c fold change: ratio between intrinsic MIC of test compound and combination MIC, erythromycin 10.9 µM, E. coli
Method: Restoring enhancer concentrations were determined using previously reported protocols.

human red blood cells = test: Hemolytic assay; assay type: cell-based; conditions: concentration at 10% hemolytic activity on human red blood cells; mean (n = 2)
Method: Hemolysis assays were conducted using the protocols previously reported.

[2] = system: C. neoformans (ATCC 208821); test: Antifungal MIC, C. neoformans; assay type: cell-based, Cryptococcus neoformans; conditions: Cryptococcus neoformans, ATCC208821, C. neoformans (ATCC 208821); mean (n = 2)
Method: (§1) The susceptibility of bacterial strains S. aureus (ATCC 25,923 or 29213), E. coli (ATCC 25922), and P. aeruginosa (ATCC 27853) to antibiotics and compounds was determined according to previously reported protocols. Additional antimicrobial evaluation against MRSA (ATCC 43300), Klebsiella pneumoniae (ATCC 700603), Acinetobacter baumannii (ATCC 19606), Candida albicans (ATCC 90028), and Cryptococcus neoformans (ATCC 208821) was undertaken at the Community for Open Antimicrobial Drug Discovery at The University of Queensland (Australia) according to their standard protocols as reported previously.

MRSA (ATCC 43300) = test: Antimicrobial MIC, MRSA; assay type: cell-based, methicillin-resistant Staphylococcus aureus; conditions: MRSA (ATCC 43300), mean (n = 2), read-out: MIC MRSA
Method: as §1

[3] = system: P. aeruginosa (ATCC 27853); test: Enhancement of doxycycline activity; assay type: cell-based, Pseudomonas aeruginosa; conditions: for Dox/P.a: concentration required to restore doxycycline activity (combination MIC): doxycycline fixed at 4.5 µM (2 µg/mL), P. aeruginosa (ATCC 27853); for Dox/P.a fold change: ratio between intrinsic MIC of test compound and combination MIC, doxycycline 4.5 µM, P. aeruginosa
E. coli (ATCC 25922) [4] = test: Antimicrobial MIC, E. coli; assay type: cell-based, Escherichia coli; conditions: Escherichia coli, ATCC25922, E. coli (ATCC 25922); mean (n = 2)
Method: as §1

[5] = system: A. baumannii (ATCC 19606); test: Antimicrobial MIC, A. baumannii; assay type: cell-based, Acinetobacter baumannii; conditions: Acinetobacter baumannii, ATCC19606, A. baumannii (ATCC 19606); mean (n = 2)
Method: as §1

Cytotoxicity assay = assay type: cell-based, human; conditions: human, HEK293 human embryonic kidney cells, concentration at 50% cytotoxicity on HEK293 cells; mean (n = 2)
Method: Cytotoxicity assays were conducted using the protocols previously reported.

[6] = system: K. pneumoniae (ATCC 700603); test: Antimicrobial MIC, K. pneumoniae; assay type: cell-based; conditions: Klebsiella pneumoniae, ATCC700603, mean (n = 2)
Method: as §1

C. albicans (ATCC 90028) = test: Antifungal MIC, C. albicans; assay type: cell-based; conditions: Candida albicans, ATCC90028, mean (n = 2)
Method: as §1

[7] = system: S. aureus (ATCC 25,923 or ATCC 29213); test: Antimicrobial MIC, S. aureus; assay type: cell-based, Staphylococcus aureus; conditions: Staphylococcus aureus, mean (n = 3)
Method: as §1

[8] = system: P. aeruginosa (PAO1 or ATCC 27853); test: Antimicrobial MIC, P. aeruginosa; assay type: cell-based; conditions: Pseudomonas aeruginosa; P. aeruginosa (PAO1 or ATCC 27853); mean (n = 3); read-out: MIC P. a
Method: as §1

Compound	Eryth/E.c: concentration required to restore erythromycin activity (combination MIC) (E. coli (ATCC 25922) [1])	Eryth/E.c fold change (E. coli (ATCC 25922) [1])	Hemolysis HC10 (human red blood cells)	MIC [2]	MIC (MRSA (ATCC 43300))	MIC (MRSA (ATCC 43300); Staphylococcus aureus)	Dox/P.a: concentration required to restore doxycycline activity (combination MIC) [3]	Dox/P.a fold change [3]	MIC (E. coli (ATCC 25922) [4])	MIC [5]	IC50 (Cytotoxicity assay)	MIC [6]	MIC (C. albicans (ATCC 90028))	MIC [7]	MIC [8]
O=C(NCCCNCCCCCCCCCCNCCCNC(=O)c1cccc2ccccc12)c1cccc2ccccc12.O=C(O)C(F)(F)F.O=C(O)C(F)(F)F [Compound 17e, N^1,N^10-Bis(3-(1-naphthamido)propyl)decane-1,10-diaminium 2,2,2-trifluoroacetate]	122 µM	5 fold	>38.9 µM	38.9 µM	9.72 µM	9.7 µM	608 µM	1 fold	608 µM	> 38.9 µM	23.7 µM	> 38.9 µM	> 38.9 µM	244 µM	608 µM
O=C(CCC(=O)Nc1cccc2ccccc12)NCCCNCCCCCCCCCCNCCCNC(=O)CCC(=O)Nc1cccc2ccccc12.O=C(O)C(F)(F)F.O=C(O)C(F)(F)F [Compound 18e, N^1,N^10-Bis(3-(4-(naphthalen-1-ylamino)-4-oxobutanamido)propyl)decane-1,10-diaminium 2,2,2-trifluoroacetate]	51.8 µM	10 fold	>33.2 µM	33.2 µM		33.2 µM	207 µM	2.5 fold	518 µM	> 33.2 µM	> 33.2 µM	> 33.2 µM	> 33.2 µM	104 µM	518 µM
O=C(NCCCNCCCCCCCCCCNCCCNC(=O)c1ccc2ccccc2c1)c1ccc2ccccc2c1.O=C(O)C(F)(F)F.O=C(O)C(F)(F)F [Compound 19e, N^1,N^10-Bis(3-(2-naphthamido)propyl)decane-1,10-diaminium 2,2,2-trifluoroacetate]	60.8 µM	2 fold	>38.9 µM	4.86 µM		1.22 µM	608 µM	1 fold	122 µM	38.9 µM	4.75 µM	38.9 µM	38.9 µM	30 µM	608 µM
O=C(NCCCNCCCCCCNCCCNC(=O)c1ccc2ccccc2c1)c1ccc2ccccc2c1.O=C(O)C(F)(F)F.O=C(O)C(F)(F)F [Compound 19b, N^1,N^6-Bis(3-(2-naphthamido)propyl)hexane-1,6-diaminium 2,2,2-trifluoroacetate]	65.2 µM	2 fold	>41.7 µM	20.9 µM		41.7 µM	65.2 µM	> 2 fold	130 µM	> 41.7 µM	> 41.7 µM	> 41.7 µM	> 41.7 µM	65.2 µM	> 130 µM
O=C(CCC(=O)Nc1cccc2ccccc12)NCCCNCCCCCCCNCCCNC(=O)CCC(=O)Nc1cccc2ccccc12.O=C(O)C(F)(F)F.O=C(O)C(F)(F)F [Compound 18c, N^1,N^7-Bis(3-(4-(naphthalen-1-ylamino)-4-oxobutanamido)propyl)heptane-1,7-diaminium 2,2,2-trifluoroacetate]	200 µM	1 fold	>34.7 µM	> 34.7 µM		> 34.7 µM	12.5 µM	16 fold	200 µM	> 34.7 µM	> 34.7 µM	> 34.7 µM	> 34.7 µM	> 200 µM	200 µM
